We go through three molecules from patent publication US20070243222A1, “FUNGICIDAL FORMULATION AND METHOD OF USE” (priority 2006, published 2007).

One test deals with Trichophyton rubrum. As to the kind of experiment: inhibition of propagation of Trichophyton rubrum. In kind it is cell-based. As to conditions: acting alone or in combination. From the text:
An additional iron chelating agent, useful in the present invention, is an iron-chelating agent consisting of ciclopirox in conjunction with a light-blocking agent. Particularly, preferred iron chelating agents useful in the present invention are zinc pyrithione and Chelex-100. Pyrithione is 2-pyridinethiol-1-oxide and is a “bidentate ligand” that has the capacity to complex with metals other than zinc, such as iron. Chelex-100 is a styrene divinylbenzene copolymer containing paired iminodiacetate ions, which act as chelating groups for binding polyvalent metal ions.

Test [1] deals with onychomycosis. As to conditions: topical nail lacquer once daily, mild to moderate onychomycosis; combined results of two randomized, controlled trials; cited from earlier work.
In test [2] the test system is onychomycosis. As to conditions: standard oral treatment; survey Arch Dermatol 134(12):1551-1554, 1998; cited from earlier work.

As for zinc pyrithione, the “inhibitory effect on the propagation of Trichophyton rubrum” value in the test with Trichophyton rubrum is on record as “potent inhibitory effect”.

For the molecule `Cc1cc(C2CCCCC2)n(O)c(=O)c1` [ciclopirox], the “complete resolution, share of treated patients” value with onychomycosis [1] is reported as “approximately 7%”.

With `CN(C/C=C/C#CC(C)(C)C)Cc1cccc2ccccc12` [terbinafine], in the test with onychomycosis [2], the “disease-free nails, share of cases” value was 35-50%.
